According to patent US4374136A, “Pyrimidine derivatives” (May & Baker Limited, priority 1980, dated 1983):
Like-named read-outs stand apart in the source and are kept apart here.

What was measured:
[1] = system: Plasmodium yoelii nigeriensis (strain N67); experiment: Antimalarial activity in mice, Plasmodium yoelii nigeriensis strain N67, oral daily for 4 days; assay type: in vivo; details: for ED50: Plasmodium yoelii, 504 h, read-out: CD50 (dose required to cure 50% of mice tested)
Experimental: (§1) (a) The test compounds were tested in mice, against Plasmodium yoelii nigeriensis (strain N67), which is sensitive to pyrimethamine, and against a strain of Plasmodium yoelii nigeriensis [strain PR (derived from strain N67)] which is resistant to pyrimethamine, and also against pyrimethamine sensitive Plasmodium berghei (strain N30).
(§2) In the experiments, the mice were each infected intraperitoneally with about 10^6 trophozoites. The test compound was administered orally daily for 4 days, beginning on the day of infection, and peripheral blood smears of the mice were observed 2 or 3 times per week for a total of 21 days. The numbers of mice cured were counted and the dose required to cure 50% of mice tested (CD50) was calculated.

[2] = system: Plasmodium yoelii nigeriensis (strain PR); experiment: Antimalarial activity in mice, pyrimethamine-resistant Plasmodium yoelii nigeriensis strain PR, oral daily for 4 days; assay type: in vivo; details: for Number of mice cured: PR; for ED50: Plasmodium yoelii, 504 h, strain PR, oral daily for 4 days from day of infection, 21 days observation, read-out: CD50 (dose required to cure 50% of mice tested)
Experimental: as §1, §2

[3] = system: Plasmodium berghei (strain N30); experiment: Antimalarial activity in mice, Plasmodium berghei strain N30, oral daily for 4 days; assay type: in vivo; details: for Number of mice cured: 24 mice tested; for ED50: Plasmodium berghei, 504 h, read-out: CD50 (dose required to cure 50% of mice tested)
Experimental: as §1, §2

[4] = system: Plasmodium yoelii nigeriensis (strain N67); experiment: Single oral dose antimalarial test in mice infected with strain N67; assay type: in vivo, Plasmodium yoelii nigeriensis; mice; details: for ED50: Plasmodium yoelii
Experimental: (b) Mice were each infected intraperitoneally with about 10^6 trophozoites of strain N67 of Plasmodium yoelii nigeriensis. […] The numbers of mice cured were counted and the dose required to cure 50% of mice tested (CD50) was calculated.
The results obtained are shown below in Table II, in comparison with a test using pyrimethamine against the same organism.

[5] = Acute oral toxicity in mice; assay type: in vivo; details: mouse, in vivo; single oral dose, mice; read-out: LD50 (dose required to kill 50% of the mice tested)
Experimental: (§3) Mice were treated with a single dose of the compound of formula III by the oral route, and were observed until all survivors had appeared to be healthy for 3 consecutive days. The LD50 dose (dose required to kill 50% of the mice tested) was then calculated.
(§4) In a similar test on reference compound RCA an oral dose of 1000 mg/kg killed 2 out of 5 mice, giving an LD50 figure of […].

[6] = system: mice; experiment: Acute oral toxicity in mice; assay type: in vivo; details: 5 mice tested
Experimental: as §3, §4

[7] = system: dogs; experiment: Toxicity in dogs, oral; assay type: in vivo
[8] = system: malaria; experiment: Comparative activity against malaria (general statement); assay type: in vivo
Text: The properties of the compound of formula III are illustrated by the following laboratory tests.

[9] = 504 h, one single oral dose 48 hours after infection, strain N67, read-out: CD50 (dose required to cure 50% of mice tested)

## Cc1nc(N)nc(N)c1OCCCOc1ccc(-c2ccc(Cl)cc2)cc1 [compound of formula III, 2,4-diamino-5-[3-{4-(4-chlorophenyl)phenoxy}propoxy]-6-methylpyrimidine]
[1]; N67, daily dose 0.125 mg/kg, 32 mice tested
  Number of mice cured: 2 mice
[1]; N67, daily dose 0.5 mg/kg, 32 mice tested
  Number of mice cured: 28 mice
[1]; N67, daily dose 2.0 mg/kg, 31 mice tested
  Number of mice cured: 31 mice
[1]; strain N67, oral daily for 4 days from day of infection, 21 days observation
  ED50: 0.3 mg/kg
[2]; daily dose 0.2 mg/kg, 16 mice tested
  Number of mice cured: 0 mice
[2]; daily dose 2.0 mg/kg, 16 mice tested
  Number of mice cured: 3 mice
[2]; daily dose 20.0 mg/kg, 15 mice tested
  Number of mice cured: 15 mice
[2]
  ED50: 3 mg/kg
[3]; N30, daily dose 0.125 mg/kg
  Number of mice cured: 0 mice
[3]; N30, daily dose 0.5 mg/kg
  Number of mice cured: 14 mice
[3]; N30, daily dose 2.0 mg/kg
  Number of mice cured: 24 mice
[3]; strain N30, oral daily for 4 days from day of infection, 21 days observation
  ED50: 0.45 mg/kg
[4]; [9]
  ED50: 3.5 mg/kg
[4]; single dose 0.2 mg/kg, 48 hours after infection, 8 mice tested
  Number of mice cured: 0 mice
[4]; single dose 2.0 mg/kg, 48 hours after infection, 8 mice tested
  Number of mice cured: 1 mice
[4]; single dose 20.0 mg/kg, 48 hours after infection, 8 mice tested
  Number of mice cured: 8 mice
[5]
  LD50: ~1000 mg/kg
[6]; 500 mg/kg oral
  Number of mice killed: 0 mice
[6]; 1000 mg/kg oral
  Number of mice killed: 3 mice
[7]; 15 mg/kg/day (highest dosage), 6 dogs
  Number of dogs in which clinically well-tolerated: 5 dogs
[7]; oral gelatin capsules, one month, 1, 3 and 9 mg/kg/day
  Clinical tolerance in dogs: clinically well-tolerated
[7]; versus reference compound RCA
  Toxicity in dogs in comparison: much less toxic in dogs than reference compound RCA
[8]; sensitive and resistant strains of malaria, versus reference compound RCA
  Antimalarial activity in comparison: very much more active than reference compound RCA

## CCc1nc(N)nc(N)c1-c1ccc(Cl)cc1 [pyrimethamine, 2,4-diamino-5-(4-chlorophenyl)-6-ethylpyrimidine]
[4]; [9]
  ED50: > 50 mg/kg
[4]; dose 5.0 mg/kg, 8 mice tested
  Number of mice cured: 0 mice
[4]; dose 50.0 mg/kg (maximum tolerated dose), 8 mice tested
  Number of mice cured: 0 mice

## Cc1nc(N)nc(N)c1OCCCOc1ccc(Cl)cc1C1CCCCC1 [reference compound RCA, 2,4-diamino-6-methyl-5-[3-(4-chloro-2-cyclohexylphenoxy)propoxy]pyrimidine, reference compound]
[1]; N67, daily dose 1 mg/kg, 32 mice tested
  Number of mice cured: 2 mice
[1]; N67, daily dose 5 mg/kg, 32 mice tested
  Number of mice cured: 17 mice
[1]; N67, daily dose 25 mg/kg, 31 mice tested
  Number of mice cured: 31 mice
[1]; po
  ED50: 5 mg/kg
[2]; daily dose 10 mg/kg, 32 mice tested
  Number of mice cured: 0 mice
[2]; daily dose 100 mg/kg, 32 mice tested
  Number of mice cured: 32 mice
[2]
  ED50: 30 mg/kg
[3]; N30, daily dose 1 mg/kg
  Number of mice cured: 0 mice
[3]; N30, daily dose 10 mg/kg
  Number of mice cured: 5 mice
[3]; N30, daily dose 100 mg/kg
  Number of mice cured: 24 mice
[3]; po
  ED50: 15 mg/kg
[4]; po, 24 h, read-out: CD50
  ED50: > 200 mg/kg
[4]; oral dose 200 mg/kg, 24 hours after infection, 8 mice
  Number of mice cured: 2 mice
[5]
  LD50: ~1000 mg/kg
[6]; 1000 mg/kg oral
  Number of mice killed: 2 mice
[7]; doses higher than 3 mg/kg/day
  Deaths in dogs: deaths occurring at higher doses
[7]; even at doses of 3 mg/kg/day
  Clinical tolerance in dogs: clinically badly tolerated
[8]; fold as active
  Activity against malaria relative to any of the other 34 compounds of B.P. 1546937 tested: at least 4 times
